Laboratory results: US20240067651A1 (Biohaven Therapeutics Ltd., priority 2019, published 2024)

Tests used:
[1] = Caco-2 Permeability Assay; format: in vitro ADME, human; conditions: human
Summary of the method: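 Caco-2 monolayers cultured 21 days (TEER >600 […]); test article at 10 μM in HBSS/HEPES pH 7.4 transport medium, dosed apical or basolateral, ±Pgp inhibitor. Incubated 90 min at 37 °C; both compartments quantified by LC-MS/MS. Papp (A→B, B→A), efflux ratio and % recovery calculated.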

[2] = Stability in Simulated Gastric Fluid (SGF); format: in vitro ADME; parameters: key: % parent compound remaining relative to 0-minute sample
Summary of the method: (§1)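 Stability was tested at 37° C in pepsin-supplemented gastric fluid, pH 1.2, and pancreatin-supplemented intestinal fluid, pH 6.8, using 2 μg/mL final compound over 0–60 minutes. Remaining parent was quantified by LC-MS/MS and expressed as a percentage of time zero.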

[3] = Stability in Simulated Intestinal Fluid (SIF); format: in vitro ADME; parameters: key: % parent compound remaining relative to 0-minute sample
Summary of the method: as §1

Plasma Stability = format: in vitro ADME, human
Summary of the method: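 Compounds incubated at 1 μM in fresh human plasma for 1 hour at 37° C, then protein-precipitated with acetonitrile/formic acid containing internal standard. Remaining parent measured by LC-MS/MS in triplicate, expressed as percent of control remaining.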

[4] = Caco-2, pH 7.4, Caco-2 monolayer
[5] = simulated gastric fluid, remaining at 1 h
[6] = simulated intestinal fluid, remaining at 1 h
[7] = Caco-2, pH 7.4, donor 10 μM, 90 minutes, 37° C., direction not given
[8] = % remaining at 1 h, SGF with pepsin pH 1.2, 2 μg/mL, 37° C.
[9] = % remaining at 1 h, SIF with pancreatin pH 6.8, 2 μg/mL, 37° C.
[10] = % remaining at 1 h, human plasma, 1 μM, 37° C.
[11] = % remaining at 1 h in simulated gastric fluid
[12] = % remaining at 1 h in simulated intestinal fluid
[13] = % remaining at 1 h in human plasma
[14] = % @ 1 h (remaining) in simulated gastric fluid
[15] = % @ 1 h (remaining) in simulated intestinal fluid
[16] = % @ 1 h (remaining) in human plasma
[17] = Caco-2, pH 7.4, Caco-2 monolayer, the 15th table
[18] = % remaining at 1 h in simulated gastric fluid, the 15th table
[19] = % remaining at 1 h in simulated intestinal fluid, the 15th table
[20] = % remaining at 1 h in human plasma, the 15th table

With `CC(C)C[C@H](N)C(=O)OCCC(=O)OCn1ccc2c1c(=O)[nH]c(=S)n2CCOC(C)C.O=C(O)C(F)(F)F` [Example 367, trifluoroacetic acid 3-oxo-3-({4-oxo-1-[2-(propan-2-yloxy)ethyl]-2-sulfanylidene-1H,2H,3H,4H,5H-pyrrolo [3,2-d]pyrimidin-5-yl}methoxy)propyl (2S)-2-amino-4-methylpentanoate] the Papp at 90 min, 10 µM [1, 4] was < 0.108 ×10⁻⁶ cm/s, the SGF [2, 5] was 100% remaining and the SIF [3, 6] was 0% remaining. The “human Plasma stability” value (Plasma Stability; human plasma, remaining at 1 h) was 1% remaining.
For `CC(C)OCCn1c(=S)[nH]c(=O)c2c1ccn2COC(=O)C[C@H](NC(=O)CCCCCCCCCCC(=O)O)C(=O)O` [Example 142, 11-{[(1S)-1-carboxy-3-oxo-3-({4-oxo-1-[2-(propan-2-yloxy)ethyl]-2-sulfanylidene-1H,2H,3H,4H,5H-pyrrolo[3,2-d]pyrimidin-5-yl}methoxy)propyl]carbamoyl}undecanoic acid], the Papp at 90 min, 10 µM [1, 7] was < 0.19 ×10⁻⁶ cm/s, the SGF [2, 8] was 100% remaining and the SIF [3, 9] was 97% remaining. For the same compound, the “human Plasma stability” value (Plasma Stability; [10]) was 97% remaining.
With `CC(C)OCCn1c(=S)[nH]c(=O)c2c1ccn2COC(=O)CCCOC(=O)[C@@H](Cc1ccccc1)NC(=O)OC(C)(C)C` [Example 361, {4-oxo-1-[2-(propan-2-yloxy)ethyl]-2-sulfanylidene-1H,2H,3H,4H,5H-pyrrolo[3,2-d]pyrimidin-5-yl}methyl 4-{[(2R)-2-{[(tert-butoxy)carbonyl]amino}-3-phenylpropanoyl]oxy}butanoate] the Papp at 90 min, 10 µM [1, 4] was < 0.31 ×10⁻⁶ cm/s, the SGF [2, 5] was 95% remaining and the SIF [3, 6] was 9% remaining. The “human Plasma stability” value (Plasma Stability; human plasma, remaining at 1 h) was 8% remaining.
For `CC(C)C[C@H](NC(=O)OC(C)(C)C)C(=O)NCCC(=O)OCn1ccc2c1c(=O)[nH]c(=S)n2CCOC(C)C` [Example 27], the Papp at 90 min, 10 µM [1, 4] was 8.61 ×10⁻⁶ cm/s, the SGF [2, 11] was 92% remaining and the SIF [3, 12] was 61% remaining. For the same compound, the “human Plasma stability” value (Plasma Stability; [13]) was 91% remaining.
For `CC(C)OCCn1c(SCOC(=O)N(C)C)nc(=O)c2[nH]ccc21.O=C(O)C(F)(F)F` [Example 164], the Papp at 90 min, 10 µM [1, 4] was 4.2 ×10⁻⁶ cm/s, the SGF [2, 14] was 100% @ 1 h and the SIF [3, 15] was 99% @ 1 h. For the same compound, the “human Plasma stability” value (Plasma Stability; [16]) was 98% @ 1 h.
In the case of `CC(C)OCCn1c(=S)[nH]c(=O)c2c1ccn2COC(=O)CCCCNC(=O)[C@@H](N)[C@@H](C)O.O=C(O)C(F)(F)F` [Example 39], the Papp at 90 min, 10 µM [1, 4] is reported as < 0.196 ×10⁻⁶ cm/s, the SGF [2, 11] is reported as 91% remaining and the SIF [3, 12] is reported as 91% remaining. The “human Plasma stability” value (Plasma Stability; [13]) was 5% remaining.
`CC(C)OCCn1c(=S)[nH]c(=O)c2c1ccn2COC(=O)CCCCNC(=O)[C@H](CO)NC(=O)OC(C)(C)C.O=C(O)C(F)(F)F` [Example 41] showed a Papp at 90 min, 10 µM [1, 4] of 1.15 ×10⁻⁶ cm/s, an SGF [2, 11] of 78% remaining and an SIF [3, 12] of 87% remaining. The “human Plasma stability” value (Plasma Stability; [13]) was 21% remaining.
In the case of `CC(C)OCCn1c(=S)n(COC(=O)OCCOCCNC(=O)OC(C)(C)C)c(=O)c2c1ccn2COC(=O)OCCOCCNC(=O)OC(C)(C)C` [Example 122], the Papp at 90 min, 10 µM [1, 4] is reported as 19.3 ×10⁻⁶ cm/s, the SGF [2, 11] is reported as 85% remaining and the SIF [3, 12] is reported as 22% remaining. For the same compound, the “human Plasma stability” value (Plasma Stability; [13]) was 50% remaining.
With `CC(C)OCCn1c(=S)[nH]c(=O)c2c1ccn2COC(=O)CCCCNC(=O)[C@@H](NC(=O)OC(C)(C)C)C(C)C` [Example 10, {4-oxo-1-[2-(propan-2-yloxy)-ethyl]-2-sulfanylidene-1H,2H,3H,4H,5H-pyrrolo[3,2-d]pyrimidin-5-yl}methyl5-[(2S)-2-{[(tert-butoxy)carbonyl]amino}-3-methylbutanamido]pentanoate] the Papp at 90 min, 10 µM [1, 7] was 4.87 ×10⁻⁶ cm/s, the SGF [2, 8] was 81% and the SIF [3, 9] was 76%. For the same compound, the “human Plasma stability” value (Plasma Stability; [10]) was 72%.
`CC(C)NC(=O)OCSc1nc(=O)c2c(ccn2C(=O)NC(C)C)n1CCOC(C)C` [Example 195] showed a Papp at 90 min, 10 µM [1, 17] of 30 ×10⁻⁶ cm/s, an SGF [2, 18] of 100% remaining and an SIF [3, 19] of 99% remaining. For the same compound, the “human Plasma stability” value (Plasma Stability; [20]) was 97% remaining.
In the case of `CC(C)C[C@H](N)C(=O)OCn1ccc2c1c(=O)n(CO)c(=S)n2CCOC(C)C.O=C(O)C(F)(F)F` [Example 323, trifluoroacetic acid [3-(hydroxymethyl)-4-oxo-1-[2-(propan-2-yloxy)ethyl]-2-sulfanylidene-1H,2H,3H,4H,5H-pyrrolo[3,2-d]pyrimidin-5-yl]methyl (2S)-2-amino-4-methylpentanoate], the Papp at 90 min, 10 µM ([1]; Caco-2, pH 7.4) is reported as < 0.355 ×10⁻⁶ cm/s, the SGF ([2]; % remaining @ 1 h) is reported as 95%@ 1 h and the SIF ([3]; % remaining @ 1 h) is reported as 52%@ 1 h. The “human Plasma stability” value (Plasma Stability; % remaining @ 1 h) was 12%@ 1 h.
Work on `CC(C)OCCn1c(=S)[nH]c(=O)c2c1ccn2COC(=O)CCCCNC(=O)[C@H](CCc1ccccc1)NC(=O)OC(C)(C)C.O=C(O)C(F)(F)F` [Example 18] yielded a Papp at 90 min, 10 µM [1, 4] of 7.59 ×10⁻⁶ cm/s, an SGF [2, 11] of 100% and an SIF [3, 12] of 65% remaining. For the same compound, the “human Plasma stability” value (Plasma Stability; [13]) was 66% remaining.
Compound `CC(C)C[C@@H](NC(=O)OC(C)(C)C)C(=O)OCn1ccc2c1c(=O)[nH]c(=S)n2CCOC(C)C` [Example 317, {4-oxo-1-[2-(propan-2-yloxy)ethyl]-2-sulfanylidene-1H,2H,3H,4H,5H-pyrrolo[3,2-d]pyrimidin-5-yl}methyl (2R)-2-{[(tert-butoxy)carbonyl]amino}-4-methylpentanoate] has a Papp at 90 min, 10 µM ([1]; Caco-2, pH 7.4) of 0.093 ×10⁻⁶ cm/s, an SGF ([2]; % remaining @ 1 h) of 56%@ 1 h and an SIF ([3]; % remaining @ 1 h) of 30%@ 1 h. For the same compound, the “human Plasma stability” value (Plasma Stability; % remaining @ 1 h) was 99%@ 1 h.
For `COC(=O)OCSc1nc(=O)c2c(ccn2COC(=O)OC)n1CCOC(C)C` [Example 198], the Papp at 90 min, 10 µM [1, 17] was 11.4 ×10⁻⁶ cm/s, the SGF [2, 18] was 79% remaining and the SIF [3, 19] was 74% remaining. The “human Plasma stability” value (Plasma Stability; [20]) was 0% remaining.
In the case of `CC(C)OCCn1c(=S)[nH]c(=O)c2c1ccn2COP(=O)(O)O` [Example 83, ({4-oxo-1-[2-(propan-2-yloxy)ethyl]-2-sulfanylidene-1H,2H,3H,4H,5H-pyrrolo[3,2-d]pyrimidin-5-yl}methoxy)phosphonic acid], the Papp at 90 min, 10 µM [1, 7] is reported as < 1.07 ×10⁻⁶ cm/s, the SGF [2, 8] is reported as 91% and the SIF [3, 9] is reported as 100%. The “human Plasma stability” value (Plasma Stability; [10]) was 95% @.
With `CC(C)C[C@H](N)C(=O)OCCCCC(=O)OCn1ccc2c1c(=O)[nH]c(=S)n2CCOC(C)C.O=C(O)C(F)(F)F` [Example 345, trifluoroacetic acid 5-oxo-5-({4-oxo-1-[2-(propan-2-yloxy)ethyl]-2-sulfanylidene-1H,2H,3H,4H,5H-pyrrolo[3,2-d]pyrimidin-5-yl}methoxy)pentyl (2S)-2-amino-4-methylpentanoate] the Papp at 90 min, 10 µM ([1]; Caco-2, pH 7.4) was < 0.0662 ×10⁻⁶ cm/s, the SGF ([2]; % remaining @ 1 h) was 71% remaining and the SIF ([3]; % remaining @ 1 h) was 2% remaining at. For the same compound, the “human Plasma stability” value (Plasma Stability; % remaining @ 1 h) was 77% remaining.
Work on `CC(C)OCCn1c(=S)[nH]c(=O)c2c1ccn2COC(=O)CCCCCCCCCCCCCCC(=O)O` [Example 255, 16-oxo-16-({4-oxo-1-[2-(propan-2-yloxy)ethyl]-2-sulfanylidene-1H,2H,3H,4H,5H-pyrrolo[3,2-d]pyrimidin-5-yl}methoxy)hexadecanoic acid] yielded a Papp at 90 min, 10 µM [1, 7] of 2.72 ×10⁻⁶ cm/s, an SGF [2, 8] of 95% and an SIF [3, 9] of 2%. For the same compound, the “human Plasma stability” value (Plasma Stability; [10]) was 76%.
`CC(=O)OCn1ccc2c1c(=O)[nH]c(=S)n2CCOC(C)C` [Example 159] showed a Papp at 90 min, 10 µM [1, 4] of 8.42 ×10⁻⁶ cm/s, an SGF [2, 14] of 79% @ 1 h and an SIF [3, 15] of 83% @ 1 h. The “human Plasma stability” value (Plasma Stability; [16]) was 0% @ 1 h.
With `CC(C)OCCn1c(=S)[nH]c(=O)c2c1ccn2COC(=O)[C@@H](Cc1ccccc1)NC(=O)OC(C)(C)C` [Example 305, {4-oxo-1-[2-(propan-2-yloxy)ethyl]-2-sulfanylidene-1H,2H,3H,4H,5H-pyrrolo [3,2-d]pyrimidin-5-yl}methyl (2R)-2-{[(tert-butoxy)carbonyl]amino}-3-phenylpropanoate] the Papp at 90 min, 10 µM ([1]; Caco-2, pH 7.4) was 3.84 ×10⁻⁶ cm/s, the SGF ([2]; % remaining @ 1 h) was 73% @ 1 h and the SIF ([3]; % remaining @ 1 h) was 1% @ 1 h. The “human Plasma stability” value (Plasma Stability; % remaining @ 1 h) was 39% @ 1 h.
